From the SangsterLogP compilation

Assay: method code SF-HPLC, from DOI: 10.2478/s11532-013-0336-y

SMILES | logP
CC=Cc1cc(OC)c(OC(=O)c2cccnc2)c(OC)c1 | 2.94
CCCC=Cc1cc(OC)c(OC(=O)c2cccnc2)c(OC)c1 | 3.96
C=CCOc1c(OC)cc(C=CCCC)cc1OC | 4.28
CCCCC(O)c1cc(OC)c(OC)c(OC)c1 (stereo not given) | 2.49
C/C=C/c1ccc(OC)c(OC)c1OC | 3.09
C/C=C/c1cc(OC)c(OC)c(OC)c1 | 2.27
C/C=C/c1c(OC)cc(OC)cc1OC | 2.61
CCC=Cc1cc(OC)c(OC(=O)c2cccnc2)c(OC)c1 | 3.5
CCC(O)c1cc(OC)c(OC)c(OC)c1 (stereo not given) | 1.45
C/C=C/c1c(OC)ccc(OC)c1OC | 2.73
CCCCCCCC(O)c1cc(OC)c(OC)c(OC)c1 (stereo not given) | 3.95
C=CCOc1c(OC)cc(C=CC)cc1OC | 3.22
CCCCC=Cc1cc(OC)c(OC)c(OC)c1 | 4.1
CC/C=C\c1c(OC)cc(OC)cc1OC | 3.56
CCC/C=C\c1c(OC)cc(OC)cc1OC | 3.97
CCCC(O)c1cc(OC)c(OC)c(OC)c1 (stereo not given) | 1.94
CC/C=C\c1cc(OC)c(OC)c(OC)c1 | 3.06
CCCCCC(O)c1cc(OC)c(OC)c(OC)c1 (stereo not given) | 2.9
CCCCCCC(O)c1cc(OC)c(OC)c(OC)c1 (stereo not given) | 3.59
CCCC=Cc1cc(OC)c(OC)c(OC)c1 | 3.67
CCCC/C=C\c1c(OC)cc(OC)cc1OC | 4.57
CCCCCC=Cc1cc(OC)c(OC)c(OC)c1 | 4.5
C/C=C/c1cc(OC)c(OC)cc1OC | 2.44
C/C=C/c1cc(OC)cc(OC)c1OC | 2.93
C=CCOc1c(OC)cc(C=CCC)cc1OC | 3.81
